For orientation: IC50 means the concentration that gives 50% inhibition.

Experimental findings from ChEMBL document CHEMBL3745651, “Flat SAR of P3-methylsulphonamide based small molecule legumain inhibitors” (Bioorg Med Chem Lett, 2016) are described below.

The target in data set [1] is T1, Legumain (Homo sapiens, UniProt Q99538).
T1 sequence (Q99538 whole entry): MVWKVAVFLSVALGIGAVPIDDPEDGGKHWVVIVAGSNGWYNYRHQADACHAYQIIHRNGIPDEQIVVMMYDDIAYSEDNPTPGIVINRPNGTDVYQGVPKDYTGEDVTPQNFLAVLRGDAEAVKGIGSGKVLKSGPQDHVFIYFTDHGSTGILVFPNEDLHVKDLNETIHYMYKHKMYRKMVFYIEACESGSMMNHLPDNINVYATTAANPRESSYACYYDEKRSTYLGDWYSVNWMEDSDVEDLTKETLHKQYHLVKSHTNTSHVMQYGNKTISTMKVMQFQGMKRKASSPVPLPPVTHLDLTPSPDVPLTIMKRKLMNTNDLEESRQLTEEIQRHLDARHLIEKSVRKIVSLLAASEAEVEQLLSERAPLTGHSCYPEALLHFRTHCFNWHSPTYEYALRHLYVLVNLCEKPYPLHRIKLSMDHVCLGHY
The data set can be described thus: Inhibition of recombinant human legumain using Z-Ala-Ala-Asn-MCA as substrate preincubated with protein followed by substrate addition measured every 2 mins for 60 mins by microplate reader analysis.

Data set [2] in a line: Kinetic solubility of compound in pH 7.4 PBS buffer after 90 mins by plate reader analysis. It is filed as physicochemical. As to conditions: read-out: Kinetic_solubility.
A short description of data set [3]: Intrinsic clearance in mouse liver microsomes at 1 uM incubated for 50 mins by LC-MS/MS method in presence of NADPH. It is filed as ADME. The following applies: read-out: CLH. A general note: Liver microsomes are a subcellular fraction often used to study metabolism.
Data set [4] can be described thus: Intrinsic clearance in rat liver microsomes at 1 uM incubated for 50 mins by LC-MS/MS method in presence of NADPH. It is filed as ADME. The following applies: read-out: CLH.
Data set [5] in a line: Intrinsic clearance in rat hepatocytes assessed per 10^6 cells at 1 uM incubated at 37 degC for 50 mins by LC-MS/MS method […]. The class given is ADME, cell-based, Hepatocyte. The following applies: read-out: CLH.

≈ marks a conversion by molar mass, not a printed value.

Consider `C[C@H](C(=O)N[C@H](C#N)CC(N)=O)N(Cc1ccc(-c2ccccc2F)cc1)S(C)(=O)=O`, for which, in data set [1], the IC50 is > 10000 nM. Same read-out and setting: for `CCOc1cccc(-c2ccc(CN([C@@H](C)C(=O)N[C@H](C#N)CC(N)=O)S(C)(=O)=O)cc2)c1` the value was 586 nM. Regarding `C[C@@H](C(=O)N[C@H](C#N)CC(N)=O)N(Cc1ccc(-c2cccc(F)c2F)cc1)S(C)(=O)=O`, in data set [2], the solubility kinetic at 1.5 h turned out to be 181 µM (≈ 84.1 µg/mL). For the same compound, the results for the microsomal CLint at 1 µM in data set [3] and in data set [4] were 3 µL/min/mg and 17 µL/min/mg, respectively. Besides, the IC50 in data set [1] was found to be 323 nM. For the same compound, the hepatocyte CLint at 1 µM in data set [5] amounted to 38 µL/min/1e6 cells. On to `C[C@@H](C(=O)N[C@H](C#N)CC(N)=O)N(Cc1ccc(-c2cc(F)cc(F)c2)cc1)S(C)(=O)=O`, for which the IC50 in data set [1] stood at 1360 nM.

Turning to `CCC[C@@H](C(=O)N[C@H](C#N)CC(N)=O)N(Cc1ccc(-c2cccc(F)c2)cc1)S(C)(=O)=O`, the IC50 in data set [1] came out at 4380 nM.

Turning to `COc1cccc(-c2ccc(CN([C@@H](C)C(=O)N[C@H](C#N)CC(N)=O)S(C)(=O)=O)cc2)c1`, the solubility kinetic at 1.5 h in data set [2] came to 193 µM (≈ 88.5 µg/mL). The values for the microsomal CLint at 1 µM in data set [3] and in data set [4] were 24 µL/min/mg and 38 µL/min/mg, respectively. Also, the IC50 in data set [1] was 378 nM. In data set [5], the hepatocyte CLint at 1 µM was 69 µL/min/1e6 cells. Consider `CCCS(=O)(=O)N(Cc1ccc(-c2cccc(F)c2F)cc1)[C@@H](C)C(=O)N[C@H](C#N)CC(N)=O`, for which the half-maximal inhibitory concentration (IC50) in data set [1] worked out at 6740 nM.

Take `CCS(=O)(=O)N(Cc1ccc(-c2cccc(F)c2F)cc1)[C@@H](C)C(=O)N[C@H](C#N)CC(N)=O`: the half-maximal inhibitory concentration (IC50) in data set [1] amounted to 1090 nM. For `CC(C(=O)N[C@H](C#N)CC(N)=O)N(Cc1ccc(-c2cccc(Cl)c2)cc1)S(C)(=O)=O` (mixture of isomers), the IC50 in data set [1] was 425 nM. On the same count and under the same terms, for `CC(C)CS(=O)(=O)N(Cc1ccc(-c2cccc(F)c2)cc1)[C@@H](C)C(=O)N[C@H](C#N)CC(N)=O` the value was 2270 nM; for `CCC[C@@H](C(=O)N[C@H](C#N)CC(N)=O)N(Cc1ccc(-c2cccc(F)c2F)cc1)S(C)(=O)=O`, 7750 nM. On the same count and under the same terms, for `CCOc1cccc(-c2ccc(CN([C@H](C)C(=O)N[C@H](C#N)CC(N)=O)S(C)(=O)=O)cc2)c1` the value was > 10000 nM; for `CC(C)Oc1cccc(-c2ccc(CN([C@H](C)C(=O)N[C@H](C#N)CC(N)=O)S(C)(=O)=O)cc2)c1`, 5050 nM. On the same count and under the same terms, for `COc1cccc(-c2ccc(CN([C@H](C)C(=O)N[C@H](C#N)CC(N)=O)S(C)(=O)=O)cc2)c1` the value was 5850 nM; for `C[C@H](C(=O)N[C@H](C#N)CC(N)=O)N(Cc1ccc(-c2ccc(F)c(F)c2)cc1)S(C)(=O)=O`, 6300 nM. On to `C[C@@H](C(=O)N[C@H](C#N)CC(N)=O)N(Cc1ccc(-c2cccc(F)c2)cc1)S(C)(=O)=O`, for which the solubility kinetic at 1.5 h in data set [2] is 185 µM (≈ 82.6 µg/mL). Moreover, the microsomal CLint at 1 µM was 4 µL/min/mg in data set [3] and 19 µL/min/mg in data set [4]. For the same compound, in data set [1], the IC50 was determined as 128 nM. For the same compound, the hepatocyte CLint at 1 µM in data set [5] was 45 µL/min/1e6 cells. Regarding `CC(C)Oc1cccc(-c2ccc(CN([C@@H](C)C(=O)N[C@H](C#N)CC(N)=O)S(C)(=O)=O)cc2)c1`, the 50% inhibitory concentration (IC50) in data set [1] worked out at 882 nM.

For the compound `C[C@H](C(=O)N[C@H](C#N)CC(N)=O)N(Cc1ccc(-c2cccc(F)c2F)cc1)S(C)(=O)=O`, the IC50 in data set [1] was determined as 1460 nM. With `C[C@@H](C(=O)N[C@H](C#N)CC(N)=O)N(Cc1ccc(-c2ccccc2F)cc1)S(C)(=O)=O`, the concentration for half-maximal inhibition (IC50) in data set [1] is 356 nM. Take `C[C@@H](C(=O)N[C@H](C#N)CC(N)=O)N(Cc1ccc(-c2ccc(F)c(F)c2)cc1)S(C)(=O)=O`: the concentration for half-maximal inhibition (IC50) in data set [1] was 252 nM. For `C[C@H](C(=O)N[C@H](C#N)CC(N)=O)N(Cc1ccc(-c2cc(F)cc(F)c2)cc1)S(C)(=O)=O`, the half-maximal inhibitory concentration (IC50) in data set [1] was 9250 nM. Take `CC[C@@H](C(=O)N[C@H](C#N)CC(N)=O)N(Cc1ccc(-c2cccc(F)c2F)cc1)S(C)(=O)=O`: the IC50 in data set [1] turned out to be 5850 nM. The same measure, in the same setting: then `C[C@H](C(=O)N[C@H](C#N)CC(N)=O)N(Cc1ccc(-c2cccc(F)c2)cc1)S(C)(=O)=O`, with 2260 nM.
